According to US20080069809A1, “Compositions and methods for the diagnosis and treatment of cancer” (priority 2006, published 2008):

Assays:
[1] = system: K562; conditions: less sensitive, treated 5 days
Experimental: (§1) The myeloid leukemic cell lines HL60, NB60, NB4, U937, K562 and KG1a were all grown in RPMI 1640 medium (Life Technologies, Paisley, United Kingdom) supplemented with 10% v/v fetal calf serum (Sear Laboratories International Crawley, United Kingdom), 100 U/mL penicillin, and 100 μg/mL streptomycin (Sigma Aldrich, Poole, United Kingdom) at 37° C. and 5% v/v CO2. AML blasts were isolated from patient bone marrow aspirates and peripheral blood of eight patients at diagnosis or relapse. Patients were not receiving AML therapy at time of sampling. Blasts were isolated by Ficoll density centrifugation and were cultured in serum-free insulin transferrin selenium-positive (ITS+) medium (Life Technologies) containing 300 ng/mL stem cell factor (SCF) and 10 ng/mL interleukin 3 (IL3; R and D Systems, Abingdon, United Kingdom) and antibiotics. […] Normal myeloblasts were isolated from cord blood or adult mobilized peripheral blood. Briefly, CD34^+ cells were indirectly selected from the mononuclear cell preparations using antibody-coated magnetic beads (Miltenyi Biotec, United Kingdom).
(§2) To determine the effects of ingenol-3-angelate (PEP005), cells were incubated for up to 5 days with medium alone or PEP005 at a range of concentrations from 0.2 nM to 20 μM. […] Apoptosis and differentiation were assessed after 1 to 5 days.

[2] = system: U937; conditions: sub-G1 DNA by FACS, treated 5 days
Experimental: as §1, §2

[3] = system: HL60; assay: Differentiation (CD11b expression) in HL60 cells; type: cell-based
Experimental: The myeloid leukemic cell lines HL60, NB60, NB4, U937, K562 and KG1a were all grown in RPMI 1640 medium (Life Technologies, Paisley, United Kingdom) supplemented with 10% v/v fetal calf serum (Sear Laboratories International Crawley, United Kingdom), 100 U/mL penicillin, and 100 μg/mL streptomycin (Sigma Aldrich, Poole, United Kingdom) at 37° C. and 5% v/v CO2. AML blasts were isolated from patient bone marrow aspirates and peripheral blood of eight patients at diagnosis or relapse. Patients were not receiving AML therapy at time of sampling. […] Blast purity ranged from 80% to 95%, as assessed by expression of CD34. […]
(§3) Cell differentiation was determined by staining of cells with anti-CD11b antibody as a general early marker of myeloid differentiation. In studies with HL60 cells, PEP005-treated and 20 nM phorbol myristate (PMA)-treated (Sigma Aldrich) cells were also assessed for their ability to phagocytose complement-coated yeast, a marker of a fully differentiated myeloid cell, as previously described (Toksoz et al, Leukemia Res 6:491-498, 1982). […] Images were captured with a SPOT2 cameria (Diagnostic Instructions, Sterling Heights, Mich.) and analyzed using Image-Pro 4.0 software (Media Cybernetics, Silver Spring, Md.).

[4] = molecular target: T1, PKC-δ (Homo sapiens, UniProt Q05655); assay: PKC-δ cleavage to 40-kDa fragment in HL60 cells (Western blotting); type: cell-based; conditions: 20 nM PEP005 for up to 9 hours
T1 construct: endogenous in cells; host or cells: HL60
T1 sequence (Q05655 whole entry, the tested form may be a part): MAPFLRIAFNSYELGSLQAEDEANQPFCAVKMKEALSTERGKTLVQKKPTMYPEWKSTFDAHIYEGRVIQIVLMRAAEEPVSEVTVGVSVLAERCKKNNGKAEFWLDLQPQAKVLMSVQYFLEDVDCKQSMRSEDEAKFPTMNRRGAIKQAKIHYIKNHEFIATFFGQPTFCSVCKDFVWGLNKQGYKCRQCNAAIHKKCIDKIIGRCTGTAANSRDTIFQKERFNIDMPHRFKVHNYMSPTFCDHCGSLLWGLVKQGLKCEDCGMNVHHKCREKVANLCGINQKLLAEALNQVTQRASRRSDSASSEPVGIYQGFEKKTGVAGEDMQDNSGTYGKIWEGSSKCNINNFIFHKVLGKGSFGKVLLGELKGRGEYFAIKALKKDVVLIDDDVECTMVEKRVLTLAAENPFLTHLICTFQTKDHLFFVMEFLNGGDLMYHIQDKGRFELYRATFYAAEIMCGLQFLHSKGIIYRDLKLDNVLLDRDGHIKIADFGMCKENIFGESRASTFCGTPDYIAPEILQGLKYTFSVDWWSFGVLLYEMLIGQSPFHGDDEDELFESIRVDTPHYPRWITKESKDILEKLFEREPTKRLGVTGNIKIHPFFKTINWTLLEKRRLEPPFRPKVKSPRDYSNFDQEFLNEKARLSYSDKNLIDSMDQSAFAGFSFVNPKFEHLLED
Experimental: PKC isoenzyme expression in leukemic cell lines was determined by Western blotting. Cells (0.5×10^6) were lysed in lysis buffer (20 mM Tris [tris(hydroxymethyl-aminomethane]-HCl, pH 7.4, containing 150 mM NaCl, 0.5 mM EDTA [ethylenediaminetertraacetic acid], 1 mM dithiothreitol, 1 mM phenymethlsulfonylfuoride, 10 μg/mL of aprotinin, leupeptin, and pepstatin A, and 1% Triton-X-100). the lysate was spun at 1000 g for 10 minutes to isolate nuclei and was then combined 1:1 with sodium dodecyl sulfate (SDS) sample buffer and boiled for 5 minutes. The extracts were then analyzed by Western blotting using antibodies to the major isoenzymes found in myeloid cells, namely PKC-α, PKC-β, PKC-δ and PKC-ξ (all purchased from Santa Cruz Biotechnology, Santa Cruz, Calif.). Blots were developed using an enhanced chemiluminescence (ECL) method (Amersham Pharmacia, Buckinghamshire, United Kingdom).

[5] = system: primary AML blasts; assay: Apoptosis in primary AML blasts from patient bone marrow; type: cell-based, human
Experimental: The myeloid leukemic cell lines HL60, NB60, NB4, U937, K562 and KG1a were all grown in RPMI 1640 medium (Life Technologies, Paisley, United Kingdom) supplemented with 10% v/v fetal calf serum (Sear Laboratories International Crawley, United Kingdom), 100 U/mL penicillin, and 100 μg/mL streptomycin (Sigma Aldrich, Poole, United Kingdom) at 37° C. and 5% v/v CO2. AML blasts were isolated from patient bone marrow aspirates and peripheral blood of eight patients at diagnosis or relapse. Patients were not receiving AML therapy at time of sampling. Blasts were isolated by Ficoll density centrifugation and were cultured in serum-free insulin transferrin selenium-positive (ITS+) medium (Life Technologies) containing 300 ng/mL stem cell factor (SCF) and 10 ng/mL interleukin 3 (IL3; R and D Systems, Abingdon, United Kingdom) and antibiotics. Blast purity ranged from 80% to 95%, as assessed by expression of CD34. Normal myeloblasts were isolated from cord blood or adult mobilized peripheral blood. Briefly, CD34^+ cells were indirectly selected from the mononuclear cell preparations using antibody-coated magnetic beads (Miltenyi Biotec, United Kingdom).
as §2, §3

[6] = system: caspase-3; assay: Caspase-3 phosphorylation in 32PO4-labeled HL60 cells; type: cell-based; conditions: 20 nM PEP005
Experimental: To determine if PEP005 induced caspase-3 phosphorylation, HL60 cells were incubated with 1.5×10^7 Bq/mL ^32PO4 (Amersham Pharmacia) in phosphate-free medium for 3 hours prior to addition of 20 nM PEP005 or PEP005 and 5 μM rottlerin (Calbiochem, Nottingham, United Kingdom). Cells were then lysed and caspase-3 was immunoprecipitated with an anti-caspase-3 antibody (BD Pharmingen, Oxford, United Kingdom) or an irrelevant isotype-matched control antibody (DAKO) and the immunoprecipitate was isolated using an anti-mouse immunoglobulin G (IgG) antibody (DAKO) and protein G-coated magnetic beads (microbeads; Miltenyi Biotech). The isolate was taken up in SDS sample buffer and run on a 10% w/v SDS-polyacrylamide gel electrophoresis (PAGE) gel and the labeled proteins were visualized using a phosphorimager.

## C/C=C(/C)C(=O)O[C@H]1C(C)=C[C@]23C(=O)[C@@H](C=C(CO)[C@@H](O)[C@]12O)[C@H]1[C@@H](C[C@H]3C)C1(C)C [PEP005, ingenol-3-angelate]
[1]
  PEP005 concentration with maximal response, apoptosis: 2 µM
[2]
  PEP005 concentration with optimal effect, apoptosis: 20 nM
[3]; 10 nM ATRA and 20 nM PEP005 in combination, 5 days
  synergy with ATRA in CD11b differentiation response: able to synergize with ATRA
[3]; treated 5 days
  PEP005 concentration with optimal effect, CD11b expression: 20 nM
[4]
  production of the 40-kDa fragment of PKC-δ: produced rapidly
[5]; after 48 hours of treatment with 20 nM PEP005
  viable blast cells / morphology: few viable AML blast cells remained
[5]; blasts of eight AML patients
  patient AML blast samples induced to enter apoptosis: seven of these were induced to enter apoptosis
[5]; seven responsive AML samples
  lowest PEP005 concentration inducing apoptosis: 2 nM
[6]
  induction of caspase-3 phosphorylation: able to induce caspase-3 phosphorylation
